Patent publication US20220305129A1, “CONJUGATES OF HETEROAROMATIC NITROGEN-COMPRISING COMPOUNDS” (Ascendis Pharma A/S, priority 2019, published 2022)

Assay: In vitro release kinetics: cleavage rate of the reversible bond in aqueous buffer
Assay type: physicochemical
Conditions: aqueous buffer (sodium phosphate with acetonitrile), pH 7.4, 37° C., 48 mM sodium phosphate, 20% acetonitrile, disappearance of conjugate by LCMS (UV), read-out: t1/2 (pH 7.4) (converted)
Protocol: The cleavage rate of the reversible bond from conjugates 6, 10 and 11 was monitored at pH 7.4 and 37° C. in aqueous buffer (pH 7.4 48 mM sodium phosphate, 20% acetonitrile). The disappearance of the conjugate was determined by LCMS (UV detection) and fitted with curve fitting software to obtain the half-life of the release.

half-life [h] | Compound
192 | CCOC(c1ccccc1)n1cnc2ccccc21 (stereo not drawn) [Compound 6]
10 | CCOC(c1ccc(CC(=O)O)cc1)n1cnc2ccccc21 (stereo not drawn) [Compound 10]
137 | CCOC(c1ccccc1)n1ncc2ccccc21 (stereo not drawn) [Compound 11]
